system: primary acute myeloid leukemia (AML) cells obtained from patients; experiment: Kinase inhibitor library screening with and without NSC130362, primary AML cells; format: cell-based, Human; details: ratio of EC50 for inhibitor to EC50 for inhibitor/NSC130362 combination; NSC130362 10 μM; Screen N 1

EC50 decrease, fold (Screen N 1) [fold]	SMILES
15.6	COc1cc2nccc(Oc3ccc(NC(=O)Nc4cc(C)on4)c(Cl)c3)c2cc1OC [Tivozanib (AV-951)]
16.8	c1cn2cc(-c3ccc4cn[nH]c4c3)nc(Nc3ccc(N4CCOCC4)cc3)c2n1 [Entospletinib (GS-9973)]
2.0	CN1CC[C@H](c2c(O)cc(O)c3c(=O)cc(-c4ccccc4Cl)oc23)[C@H](O)C1 [Flavopiridol]
15.8	COc1cc(Nc2c(C#N)cnc3cc(OCCCN4CCN(C)CC4)c(OC)cc23)c(Cl)cc1Cl [Bosutinib (SKI-606)]
1.0	CCCCCCCCCCCCc1ccc(S(=O)(=O)Nc2nncs2)cc1 [PHT-427]
497.3	Cc1cc(Nc2nc(N[C@@H](C)c3ncc(F)cn3)ncc2Cl)n[nH]1 [AZD1480]

same assay, conditions: ratio of EC50 for inhibitor to EC50 for inhibitor/NSC130362 combination; NSC130362 10 μM; Screen N 2

EC50 decrease, fold (Screen N 2) [fold]	SMILES
1.0	COc1cc2nccc(Oc3ccc(NC(=O)Nc4cc(C)on4)c(Cl)c3)c2cc1OC [Tivozanib (AV-951)]
1.0	N#CC[C@H](C1CCCC1)n1cc(-c2ncnc3[nH]ccc23)cn1 [Ruxolitinib (INCB018424)]
1.0	Cc1nc(Nc2ncc(C(=O)Nc3c(C)cccc3Cl)s2)cc(N2CCN(CCO)CC2)n1 [Dasatinib]
1.0	c1cn2cc(-c3ccc4cn[nH]c4c3)nc(Nc3ccc(N4CCOCC4)cc3)c2n1 [Entospletinib (GS-9973)]
1.0	CCCCNc1ncc2c(-c3ccc(CN4CCN(C)CC4)cc3)cn(C3CCC(O)CC3)c2n1 (stereo not shown) [UNC 2025A]
1.0	N[C@@H]1CCCN(c2c(Br)cnc3[nH]cc(NC(=O)C4CC4)c23)C1 [GDC-0575]
1.0	CC(C)NC[C@@H](C(=O)N1CCN(c2ncnc3c2[C@H](C)C[C@H]3O)CC1)c1ccc(Cl)cc1 [Ipatasertib (GDC-0068)]
1.1	CN1CC[C@H](c2c(O)cc(O)c3c(=O)cc(-c4ccccc4Cl)oc23)[C@H](O)C1 [Flavopiridol]
1.0	COc1cc(Nc2c(C#N)cnc3cc(OCCCN4CCN(C)CC4)c(OC)cc23)c(Cl)cc1Cl [Bosutinib (SKI-606)]
1.0	CCCCCCCCCCCCc1ccc(S(=O)(=O)Nc2nncs2)cc1 [PHT-427]
1.0	Cc1cc(Nc2nc(N[C@@H](C)c3ncc(F)cn3)ncc2Cl)n[nH]1 [AZD1480]

same assay, conditions: ratio of EC50 for inhibitor to EC50 for inhibitor/NSC130362 combination; NSC130362 10 μM; Screen N 3

EC50 decrease, fold (Screen N 3) [fold]	SMILES
89.9	COc1cc2nccc(Oc3ccc(NC(=O)Nc4cc(C)on4)c(Cl)c3)c2cc1OC [Tivozanib (AV-951)]
82.4	CCCCCNC(=O)N1CCC(CN(Cc2ccc(Cl)cc2)Cc2ccc([N+](=O)[O-])s2)C1 (stereo not shown) [SR9011]
1.0	CC[C@H](C)C(=O)O[C@H]1C[C@@H](C)C=C2C=C[C@H](C)[C@H](CC[C@@H]3C[C@@H](O)CC(=O)O3)[C@H]21 [Lovastatin]
0.131	c1cn2cc(-c3ccc4cn[nH]c4c3)nc(Nc3ccc(N4CCOCC4)cc3)c2n1 [Entospletinib (GS-9973)]
0.0683	CN1CC[C@H](c2c(O)cc(O)c3c(=O)cc(-c4ccccc4Cl)oc23)[C@H](O)C1 [Flavopiridol]
29.6	COc1cc(Nc2c(C#N)cnc3cc(OCCCN4CCN(C)CC4)c(OC)cc23)c(Cl)cc1Cl [Bosutinib (SKI-606)]
1.0	CCCCCCCCCCCCc1ccc(S(=O)(=O)Nc2nncs2)cc1 [PHT-427]
0.365	Cc1cc(Nc2nc(N[C@@H](C)c3ncc(F)cn3)ncc2Cl)n[nH]1 [AZD1480]

system: human primary hepatocytes; experiment: not given; details: not given

SMILES	times less toxic to hepatocytes
CC1=CC(=O)c2ccccc2C1=O [compound 61, 3-methyl-1,4-NQ, reference compound]	approximately 5 times

same assay, conditions: read-out: EC50, μM Hepatocytes ATO; in the presence of ATO (5 μM); SD does not exceed 10%

SMILES	EC50 [µM]
NC1=C(Br)C(=O)c2ncccc2C1=O [compound 65]	4.1
CC1=CC(=O)c2ccccc2C1=O [compound 61, 3-methyl-1,4-NQ, reference compound]	15.6

same assay, conditions: versus compound 1

SMILES	increase in toxicity to hepatocytes
NC1=CC(=O)c2ccccc2C1=O [compound 48, 3-amino-1,4-NQ]	approximately 3 fold

same assay, conditions: versus compound 2

SMILES	times more toxic toward hepatocytes than compound 2
CN(C)C1=C(Cl)C(=O)c2ccccc2C1=O [compound 14, 2-chloro-3-(dimethylamino)-1,4-NQ]	approximately 2 times
O=C1C(Cl)=C(N2CC2)C(=O)c2ccccc21 [compound 15, 2-chloro-3-(aziridin-1-yl)-1,4-NQ]	~6.5 times

same assay, conditions: versus compound 4

SMILES	increase in toxicity to hepatocytes
O=C1C(Cl)=C(NCCCN(CCO)CCO)C(=O)c2ccccc21 [compound 28]	3.0 fold
COCCCNC1=C(Cl)C(=O)c2ccccc2C1=O [compound 22]	approximately 3 fold
CN(C)CCCNC1=C(Cl)C(=O)c2ccccc2C1=O [compound 27]	9.2 fold

same assay, conditions: versus compound 13

SMILES	loss in toxicity to hepatocytes
O=C1C(Cl)=C(NC(CO)(CO)CO)C(=O)c2ccccc21 [compound 20]	approximately 2 fold

same assay, conditions: versus compound 17

SMILES	increase in toxicity to hepatocytes
CC(O)CNC1=C(Cl)C(=O)c2ccccc2C1=O (stereo not shown) [compound 19]	approximately 3 fold
O=C1C(Cl)=C(NCCCO)C(=O)c2ccccc21 [compound 18]	approximately 3 fold

system: human primary hepatocytes; experiment: cells; details: Hepatocyte, read-out: EC50, μM Hepatocytes
Text: We selected hepatocytes as normal cells because hepatocytes are mediate toxicity to multiple drugs and are used as a standard to assess toxicity of drugs in vitro [28]. […] For comparison with the standard of care, doxorubicin was also included in this analysis.

SMILES	EC50 [µM]
O=C1C(Cl)=C(Nc2ccccn2)C(=O)c2ccccc21 [compound 37]	6
NC1=CC(=O)c2ccccc2C1=O [compound 48, 3-amino-1,4-NQ]	28.1
O=C1C(Cl)=C(NCCCN(CCO)CCO)C(=O)c2ccccc21 [compound 28]	48.5
COCCCNC1=C(Cl)C(=O)c2ccccc2C1=O [compound 22]	90
CCC(C)NC1=C(Cl)C(=O)c2ccccc2C1=O (stereo not shown) [compound 11]	> 90
CCCNC1=CC(=O)c2ccccc2C1=O [compound 50]	> 90
O=C(CCl)NC1=C(Cl)C(=O)c2ccccc2C1=O [compound 33]	25.4
CN(C)CCCNC1=C(Cl)C(=O)c2ccccc2C1=O [compound 27]	24.1
CN(C)C1=C(Cl)C(=O)c2ccccc2C1=O [compound 14, 2-chloro-3-(dimethylamino)-1,4-NQ]	10
O=C1C(Cl)=C(N2CC2)C(=O)c2ccccc21 [compound 15, 2-chloro-3-(aziridin-1-yl)-1,4-NQ]	2.6
O=C1C(Cl)=C(NCCCO)C(=O)c2ccccc21 [compound 18]	75.3
O=C1C(Cl)=C(NC(CO)(CO)CO)C(=O)c2ccccc21 [compound 20]	47.8
NC1=C(Br)C(=O)c2ncccc2C1=O [compound 65]	8.6
CC1=CC(=O)c2ccccc2C1=O [compound 61, 3-methyl-1,4-NQ, reference compound]	11.8

system: pancreatic cancer MIA PaCa-2 cells; experiment: cells; details: Homo sapiens, MIA PaCa-2, read-out: EC50, μM MIA PaCa-2
Experimental: (§1) Fig 1 A, Structure of NSC130362. B, Dose response curve of NSC130362 in MIA PaCa-2 cells. Cells were pre-incubated with NSC130362 for 2 h followed by addition of ATO (5 μM) and incubation for an additional 24 h. At the end of the treatment, the ratio of dead cells was determined by a CellTiterGlo reagent.

SMILES	EC50 [µM]
O=C1C(Cl)=C(Nc2ccccn2)C(=O)c2ccccc21 [compound 37]	5.2
NC1=CC(=O)c2ccccc2C1=O [compound 48, 3-amino-1,4-NQ]	24.4
O=C1C(Cl)=C(NCCCN(CCO)CCO)C(=O)c2ccccc21 [compound 28]	9.2
COCCCNC1=C(Cl)C(=O)c2ccccc2C1=O [compound 22]	39
CCC(C)NC1=C(Cl)C(=O)c2ccccc2C1=O (stereo not shown) [compound 11]	> 90
CCCNC1=CC(=O)c2ccccc2C1=O [compound 50]	> 90
O=C(CCl)NC1=C(Cl)C(=O)c2ccccc2C1=O [compound 33]	7.9
CC(O)CNC1=C(Cl)C(=O)c2ccccc2C1=O (stereo not shown) [compound 19]	24.9
CN(C)CCCNC1=C(Cl)C(=O)c2ccccc2C1=O [compound 27]	0.9
CN(C)C1=C(Cl)C(=O)c2ccccc2C1=O [compound 14, 2-chloro-3-(dimethylamino)-1,4-NQ]	7.2
O=C1C(Cl)=C(N2CC2)C(=O)c2ccccc21 [compound 15, 2-chloro-3-(aziridin-1-yl)-1,4-NQ]	2.3
O=C1C(Cl)=C(NCCCO)C(=O)c2ccccc21 [compound 18]	27.5
O=C1C(Cl)=C(NC(CO)(CO)CO)C(=O)c2ccccc21 [compound 20]	> 90
NC1=C(Br)C(=O)c2ncccc2C1=O [compound 65]	1.8
CC1=CC(=O)c2ccccc2C1=O [compound 61, 3-methyl-1,4-NQ, reference compound]	7.8

same assay, conditions: versus 1,4-NQ (compound 56)

SMILES	improved anti-cancer activity [fold]
CC1=CC(=O)c2ccccc2C1=O [compound 61, 3-methyl-1,4-NQ, reference compound]	1.5

same assay, conditions: versus compound 4

SMILES	improvement in anti-cancer activity [fold]
O=C1C(Cl)=C(NCCCN(CCO)CCO)C(=O)c2ccccc21 [compound 28]	4.6
CN(C)CCCNC1=C(Cl)C(=O)c2ccccc2C1=O [compound 27]	10.8

same assay, conditions: versus compound 13

SMILES	loss in anti-cancer activity
O=C1C(Cl)=C(NC(CO)(CO)CO)C(=O)c2ccccc21 [compound 20]	approximately 50 fold

same assay, conditions: versus compound 21

SMILES	decrease in anti-cancer activity [fold]
COCCCNC1=C(Cl)C(=O)c2ccccc2C1=O [compound 22]	4

same assay, conditions: versus compound 29

SMILES	decrease in anti-cancer activity [fold]
O=C(CCl)NC1=C(Cl)C(=O)c2ccccc2C1=O [compound 33]	2

system: not listed separately; experiment: in vitro; details: human
Experimental: as §1

SMILES	selectivity ratio
CC1=CC(=O)c2ccccc2C1=O [compound 61, 3-methyl-1,4-NQ, reference compound]	10.4
